Where two headings read alike, the source gives them in different places.
What was measured:
[1] = system: Pellicle-derived human normal keratinocytes; conditions: 48 h
Protocol: Pellicle-derived human normal keratinocytes were inoculated into a 10% (v/v) FBS-containing MEM medium on a 12-well culture plate, at a cell density of 1.9×10^4 cells/well. Thereafter, the cells were pre-cultured for 24 hours according to an ordinary method. […] After completion of the culture, the cells were washed with PBS, and a survival test was then carried out according to a common method using MTT. Specifically, a 0.5 mg/mL MTT solution was added to the culture plate, resulting in a concentration of 500 μL/well, and it was then incubated in an incubator for 2 hours. Thereafter, 1.5 mL of dimethyl sulfoxide was added thereto, and the absorbance at a wavelength of 570 nm was then measured. The obtained absorbance was used as an indicator for the number of surviving cells. The number of surviving cells obtained in the case of not adding an evaluation sample was defined as 100, and the cell survival percentage (%) obtained in the case of adding an evaluation sample was obtained.

matrix metalloprotease 9 = assay: Suppression of production of matrix metalloprotease 9 on epidermis, TGF β1 or β2 induction, ELISA of culture supernatant; type: cell-based, human; conditions: keratinocytes, TGF β1 or β2 5 ng/ml, 0.45 μg/ml, 48 hours
Protocol: Thereafter, the medium was exchanged with a test medium which had been prepared by adding TGF (transforming growth factor) β1 or β2 which is known to be released as a matrix metalloprotease 9 production promoting factor from cells upon UV irradiation, to a 1% (v/v) FBS-containing MEM medium to a final concentration of 5 ng/ml, so as to produce a matrix metalloprotease 9 induction test system. […] Specifically, the concentration of a grape extract was set at 100 μg/ml, and the concentration of a Salacia plant extract (the present invention) was set at 100 μg/ml. These test substances were each added to a test medium, and the medium was then exchanged with a fresh one. Thereafter, culture was carried out for 48 hours. After completion of the culture, a culture supernatant was recovered. The recovered supernatant was assayed according to the ELISA method with Matrix Metalloprotease-9, Human, Assay (GE Healthcare, RPN2614). Measurement was carried out in accordance with protocols provided by the distributer, and the value at a wavelength of 630 nm was measured using a wavelength-tunable microplate reader, Sunrise Rainbow Thermo (SUNRISE) and was then quantified. […]

| SMILES | cell survival percentage ([1]; 0.15 μg/ml) [%] | effect of suppressing the production of matrix metalloprotease 9 (MMP9 protein expression level) (matrix metalloprotease 9) | cell survival percentage ([1]; 0.45 μg/ml) [%] |
| --- | --- | --- | --- |
| CC1=C(/C=C/C(C)=C/C=C/C(C)=C/C(=O)O)C(C)(C)CCC1 [retinoic acid] | ≥ 70 | – | – |
| C[C@H]1[C@H](C)CC[C@]2(C(=O)O)CC[C@]3(C)C(=CC[C@@H]4[C@@]5(C)CC[C@H](O)C(C)(C)[C@@H]5CC[C@]43C)[C@H]12 [ursolic acid] | – | did not have the effect of suppressing the production of matrix metalloprotease 9 | ≥ 70 |
